According to patent US10369133B2, “Immunosuppressive compounds and therapeutics” (UNIVERSITY OF TENNESSEE RESEARCH FOUNDATION, priority 2013, dated 2019):

What was measured:
NF-κB = NF-κB SEAP reporter gene assay in INS-1E cells; assay type: cell-based, rat; settings: printed "at 504" (FIG. 2B: 5 μM); cytokine cocktail 10 ng/mL TNFα, 5 ng/mL IL-1β, 10 ng/mL IFN-γ; 24 hours
Method: Briefly, a plasmid construct containing NF-kB promoter and SEAP gene was transferred into INS-1E cells by lipofectamine. SEAP was then expressed and secreted into culture supernatant and allowed […] detection using a substrate PNPP under 405 nm. […] NF-kB activity was measured 24 hours after addition of cytokine cocktail (10 ng/mL TNFα, 5 ng/mL IL-1β and 10 ng/mL IFN-γ) alone or with JP-3-110 (5 μM) or TNP (5 μM) or MPA (5 μM). Blank, no cytokine stimulation. Cyt, cytokine cocktail. Results are presented as the mean±S.D., n=3.
INS-1E cells which were stably transfected with the SEAP gene containing the response-element for NF-κB were used to screen for anti-inflammatory activity. Briefly, 10^6 cells/well were seeded overnight followed by treatment with 10 ng/mL human recombinant TNFα and either TNP or hybrid drug JP-3-110 (1 μM). SEAP activity was measured 18 h later in supernatant samples (50 µL) using the NF-κB SEAPorter™ Assay Kit (IMGENEX, San Diego, Calif.) and a microplate luminometer. SEAP activity was normalized to the total protein content.

human CD3+ T cells = assay: Mixed lymphocyte reaction: proliferation of PHA-stimulated T cells; assay type: cell-based; settings: data not shown; TNP 5 μM
Method: Briefly, human peripheral blood mononuclear cells PBMCs were isolated from human buffy coat using Ficoll-Paque. […] Results are presented as the mean±S.D., n=6.
PBMCs were isolated using Ficoll Paque. T cells were isolated from PBMCs using Dynabeads for. T cells were stimulated with PHA (1 μg/ml) for 24 h alone or in the presence of TNP (5 μM) or JP-3-110 (5 μM) for additional 4 days. The total number of PBMCs was measured using T4 Automatic Cell Counter (Nexcelom, Lawrence, Mass.). The extent of T cell activation was determined by measuring the level of IL-2, IL-2sRa, TNFα and IFN-γ in the medium using ELISA at indicated time.
Mixed lymphocytes reaction was used to determine the immunosuppressive effects of MPA and JP-3-110. T cells were purified using dynabeads from peripheral blood mononuclear cells (PBMCs), which were initially isolated from human buffy coat (FIG. 8A). […] The levels of IL-2, IL-2sRa, TNFα and IFNγ were detected by ELISA to study the effects of JP-3-110 and MPA on T cell activation.

(1S,3R,4S,5R)—N-butyl-1,3,4,5-tetrahydroxycyclohexane-1-carboxamide [TNP, reference compound]
NF-κB activities in INS-1E cells (NF-κB): significantly reduced
immunosuppressive effect in mixed lymphocytes reaction (human CD3+ T cells): did not observe any immunosuppressive effect
